# Results as given in patent US20260108547A1, “LEVERAGING L-FUCOSE-MEDIATED SIGNALING TO INDUCE MONOCYTE-DERIVED DENDRITIC CELL POLARIZATION” (H. LEE MOFFITT CANCER CENTER AND RESEARCH INSTITUTE, INC., priority 2022, published 2026).
# Key:
# moDCs = assay: moDC dendrite length, phagocytosis (bead uptake) and Fitc-dextran uptake; assay type: cell-based
# Source text: Our preliminary studies have begun to dissect and highlight moDC signaling changes induced by L-fuc treatment. Here, we present and discuss our novel findings on L-fuc-induced DC/moDC biology, the key mechanistic signaling changes that mediate these effects, and the important translational implications of these findings for efforts aimed at increasing/enhancing intratumoral DC function and anti-tumor immune responses.
# Next we wanted to determine if L-fucose enhances the function phenotype of moDCs. […] Having determined that L-fucose alters the signaling of moDCs leading to an immunostimulatory phenotype, we next sought to identify other components of DC biology that are affected. To this end we examined L-fucose-treated mature dendritic cells for changes in (FIG. 26A) dendrite length and (FIG. 26B) phagocytosis by neutral bead uptake which may correlate with differential anti-tumor capacity in the TME.
# [1] = tested on: bone marrow-derived MCs (BMMCs); assay: BMMC / T cell ex vivo co-culture (CTV proliferation, interferon-gamma release); assay type: cell-based
# Source text: We next sought to see how the immunostimulatory capacity of these cells was altered after L-fucose treatment by culturing L-fucose modulated, either by decreased fucosylation via 2FF or increased fucosylation by L-fuc, MCs with immature T cells to asses (FIG. 22B) proliferation by loss of CTV staining and (FIG. 22C) T cell activation as evident by interferon-gamma release.
# SM1 tumors [2] = assay: Flow cytometric profiling of tumors and draining lymph nodes, SM1 tumors in C57BL/6 mice fed ± L-fucose and treated ± anti-PD-1 (Table 2); assay type: in vivo, mouse
# Procedure: Tumors of SW1 or SM1 melanoma cells from […] or C57BL/6 mice, respectively) were digested using 1× tumor digest buffer (0.5 mg/mL Collagenase I, 0.5 mg/mL Collagenase IV, 0.25 mg/mL Hyalyronidase V, 0.1 mg/mL DNAse I in HBSS (Millipore Sigma (St. Louis, MO)). Tumors were homogenized using the Miltenyi MACs dissociator. Red blood cells were lysed using ACK lysis buffer (Life Technologies, (Grand Island, NY)). Tumor homogenate cells were counted using a standard hemocytometer.
# Total TILs were gated first to single cells (based on forward scatter height vs width, followed by side scatter height vs. width). Live cells were gated from the Zombie negative population from the population above. TILs were gated based on splenocyte size from a control spleen. Individual immune subpopulations were sub-gated from the total TIL population using the following staining criteria: CD3^+ for CD3^+ T cells; CD3^+/CD4^+/CD8^− for CD4^+T cells; CD3^+/CD4^−/CD8^+ for CD8^+ T cells, CD11c^+/CD11b^+ for DCs; either NK1.1 (for C57/BL6 mice) or DX5 (for C3H/HeJ) for NK cells; CD11b^+/GR1^+ for MDSC-like cells; and F4/80^+ for macrophages. Single-cell suspensions from tumor and spleen tissue were stained with Live/Dead Zombie NIR (Biolegend, (San Diego, CA)) at 1:1,000 in PBS for 20 min. […]
# SM1 tumors [3] = assay: Volumetric tumor growth, SM1 melanoma in C57BL/6 mice; assay type: in vivo, mouse; conditions: SM1 model
# Source text: All animals were housed at the Vincent A. Stabile Research building animal facility at H. Lee Moffitt Cancer Center & Research Institute, which is fully accredited by the Association for Assessment and Accreditation of Laboratory Animal Care International (AAALAC, #434), and are managed in accordance with the Guide for the Care and Use of Laboratory Animals (“The Guide”), the Animal Welfare Regulations Title 9 Code of Federal Regulations Subchapter A, “Animal Welfare”, Parts 1-3 (AWR), the Public Health Service Policy on Humane Care and Use of Laboratory Animals (PHS Policy), and by the USF Institutional Animal Care and Use Committee's Principles and Procedures of Animal Care and Use (IACUC Principles). The experiments and protocols detailed in this study received institutional approval by the Moffitt IACUC (RIS00001625). Four-to-six-week-old female C3H/HeN and male C57BL6 mice were purchased from Charles Rivers Laboratories for the indicated experiments. Four-to-six-week-old male NSG mice from the Lau laboratory breeding colony were used for the indicated experiments. Power calculations were used to determine mouse cohort sizes to detect significant changes in tumor sizes. […] Mouse tumor volumes were measured using length, width and depth divided by 2. […]
structure (smiles),measurement,setting,value
C[C@H](O)[C@@H](O)[C@@H](O)[C@H](O)C=O [L-fucose],dendrite length of moDCs,moDCs,increased
same,uptake of exogenous Fitc-dextran bait by L-fuc-induced moDCs,moDCs; compared with untreated DCs,significantly increased rate
same,phagocytosis of moDCs,moDCs; neutral bead uptake,increased
same,immunostimulatory capacity of treated dendritic cells (DCs),[1],enhanced immunostimulatory capacity
same,average # of cDC2 cells,"SM1 tumors [2]; Day 21, lymph nodes",13997.11 per 10^6 cells
same,intratumoral CD4+T central and effector memory cells,"SM1 tumors [2]; SM1 model, L-fuc alone",increased
same,"tumor suppression, single agent",SM1 tumors [3],less tumor suppressive than anti-PD1 alone
same,tumor suppression in combination with anti-PD1,SM1 tumors [3]; L-fuc in combination with anti-PD1,augmented durable suppression
